These results are taken from EP0594223B1, “Combination of therapeutic nucleosides and further therapeutic agents” (THE WELLCOME FOUNDATION LIMITED, priority 1985, dated 1987).

Where two headings read alike, the source gives them in different places.

A word on the MIC: it is the lowest concentration that inhibits growth of the organism.

Experiment [1] concerns HIV. Description: AZT/acyclovir combination, in vitro efficacy (protection) vs. HIV. In kind it is cell-based. As for the experimental part: Using a method analogous to that described in Example 79 of EP21758A, combinations of AZT and acyclovir (ACV) were tested for in vitro efficacy vs. HIV.
The subject of experiment [2] is Friend Lenkemia Virus (FLV). Description: Anti-Friend Leukemia Virus plaque inhibition in FG-10 cells. It is filed as cell-based. The method, then: FG-10 cells were seeded on a plate one day before they were infected with FLV. One hour after infecting, known concentrations of the test compounds or combinations were added. The plates were incubated for 3 days, the media replaced with fresh McCoy's 5A media and incubated another 3 days. […]

The test system of experiment [3] is HIV. Description: HIV p24 antigen by radioimmunoassay in HIV-infected PBMC cultures. The conditions noted are these: Experiment 4, Day 14. In kind it is cell-based.
The subject of experiment [4] is HIV. Description: Reverse transcriptase activity in supernatant of HIV-infected PBMC, with multiple drug effect analysis. In kind it is cell-based. The conditions noted are these: for mean reverse transcriptase values: Experiment 2, Day 10.
For experiment [5], the system named is vaccinia, HSVI and varicella zoster virus (VZV). The conditions noted are these: De Clerq et al, Biochem.Pharm. (1980) 29, 1849-1851; including DNA viruses; cited from earlier work.
The subject of another experiment is E. coli CN314. Description: MIC determination of each drug alone. It is filed as cell-based. The conditions noted are these: Escherichia coli. The method, then:
Microtiter dilutions were prepared using Wellcotest broth. Prior to synergy testing, MIC determinations were made for each compound individually against the test organism (E. coli CN314).

The subject of experiment [6] is HIV. As to the kind of experiment: Virus yield of HIV-infected PBMC cultures. It is filed as cell-based. The conditions noted are these: Experiment 3, Day 13; AZT .04 µM alone.
Where [7] appears, read: test drugs alone, E. coli CN314, read-out: MIC.

For the molecule `Nc1nc2c(ncn2COCCO)c(=O)[nH]1` [ACV, 9-(2-hydroxyethoxymethyl) guanine, reference compound], the protection result in the experiment with HIV [1] (ACV alone, 16 µg/ml (the highest tested)) is given as “less than 30%”. For the same molecule, the “potentiates the antiviral activity of AZT” value in the experiment on HIV [1] (ACV combined with AZT vs. HIV) is “about 3 fold”.

For `Cc1cn([C@H]2C[C@H](N=[N+]=[N-])[C@@H](CO)O2)c(=O)[nH]c1=O` [AZT], in experiment [2] (read-out: Azidothymidine ED50), the EC50 was 5 nM. Further, the “HIV p24” value is given as 100-200 ng protein/ml with HIV [3] (AZT 0.02 µM alone), 25-30 ng protein/ml in the experiment on HIV [3] (AZT 0.04 µM alone) and 11.2 ng protein/ml with HIV [3] (AZT 0.08 µM alone). Also, the “mean reverse transcriptase values” with HIV [4] (AZT 0.01 µM alone) stood at 159 cpm/10^6 cells x 10^3; with HIV [4] (AZT 0.02 µM alone) it was 110 cpm/10^6 cells x 10^3; with HIV [4] (AZT 0.04 µM alone), 71 cpm/10^6 cells x 10^3; in the experiment on HIV [4] (AZT 0.08 µM alone) it was 31 cpm/10^6 cells x 10^3; in the experiment on HIV [4] (AZT 0.16 µM alone) it was 7 cpm/10^6 cells x 10^3. Besides, the “mean RT values” in the experiment on HIV [4] (Experiment 3, Day 13, AZT 0.02 µM alone) is given as 51 cpm/10^6 cells x 10^3; in the experiment on HIV [4] (Experiment 3, Day 13, AZT 0.04 µM alone), 10 cpm/10^6 cells x 10^3; in the experiment with HIV [4] (Experiment 3, Day 13, AZT 0.08 µM alone), 2 cpm/10^6 cells x 10^3; in the experiment with HIV [4] (Experiment 3, Day 13, AZT 0.16 µM alone), 5 cpm/10^6 cells x 10^3; with HIV [4] (Experiment 4, Day 11, AZT 0.02 µM alone), 8 cpm/10^6 cells x 10^3; in the experiment on HIV [4] (Experiment 4, Day 11, AZT 0.04 µM alone), 4 cpm/10^6 cells x 10^3. Moreover, the “mean RT values” with HIV [4] (Experiment 4, Day 11, AZT 0.08 µM alone) amounted to 1 cpm/10^6 cells x 10^3. Moreover, the “inhibition of viral replication” value in the experiment on HIV [4] (experiment 1, all concentrations of AZT (3.2 µM and 5 twofold dilutions)) is “fully inhibitory”. In addition, the activity against viruses result in experiment [5] was “no appreciable activity”. Moreover, the protection in the experiment with HIV [1] (AZT alone at 8µM) is given as 100%. Moreover, in the experiment on HIV [1] (Table 3: AZT concentration with ACV 0 µg/ml, effect level not stated (presumably full protection)), the “AZT” value is on record as 8 µM. In the experiment with E. coli CN314 (setting [7]), the MIC amounted to 1 mg/L. Moreover, the virus yield with HIV [6] was 10^3 TCID50 /ml.

`O=C(N[C@H](CO)[C@H](O)c1ccc([N+](=O)[O-])cc1)C(Cl)Cl` [Chloramphenicol]: the MIC in the experiment with E. coli CN314 (setting [7]) is 3.1 mg/L.

Consider `CCC[C@@H]1C[C@@H](C(=O)N[C@@H]([C@H]2O[C@H](SC)[C@H](O)[C@@H](O)[C@H]2O)[C@H](C)Cl)N(C)C1` [Clindamycin], for which, in the experiment on E. coli CN314 (setting [7]), the MIC is 100 mg/L.

Regarding `CC[C@H]1OC(=O)[C@H](C)[C@@H](O[C@H]2C[C@@](C)(OC)[C@@H](O)[C@H](C)O2)[C@H](C)[C@@H](O[C@@H]2O[C@H](C)C[C@H](N(C)C)[C@H]2O)[C@](C)(O)C[C@@H](C)C(=O)[C@H](C)[C@@H](O)[C@]1(C)O` [Erthromycin], in the experiment with E. coli CN314 (setting [7]), the MIC worked out at 25 mg/L.

In the case of `CC(=O)O[C@H]1C[C@@]2(C)[C@@H](C[C@@H](O)[C@H]3[C@@]4(C)CC[C@@H](O)[C@@H](C)[C@@H]4CC[C@@]32C)/C1=C(\CCC=C(C)C)C(=O)O` [Fusidic acid], the MIC with E. coli CN314 (setting [7]) worked out at 1000 mg/L.

Consider `CO[C@H]1/C=C/O[C@@]2(C)Oc3c(C)c(O)c4c(O)c(c(/C=N/N5CCN(C)CC5)c(O)c4c3C2=O)NC(=O)/C(C)=C\C=C\[C@H](C)[C@H](O)[C@@H](C)[C@@H](O)[C@@H](C)[C@H](OC(C)=O)[C@@H]1C` [Rifampicin], for which, in the experiment with E. coli CN314 (setting [7]), the MIC came to 6.2 mg/L.

On to `Cc1cc(C)nc(NS(=O)(=O)c2ccc(N)cc2)n1` [Sulphadimidine], for which, in the experiment with E. coli CN314 (setting [7]), the MIC was determined as 32 mg/L.

On to `NC[C@H]1O[C@H](O[C@H]2[C@H](O)[C@@H](O[C@H]3O[C@H](CO)[C@@H](O)[C@H](N)[C@H]3O)[C@H](N)C[C@@H]2N)[C@H](N)C[C@@H]1O` [Tobramycin], for which the MIC in the experiment on E. coli CN314 (setting [7]) was 0.4 mg/L.

As to `COc1cc(Cc2cnc(N)nc2N)cc(OC)c1OC` [Trimethoprim, 2,4-diamino-5-(3',4',5'-trimethoxybenzyl) pyrimidine], the minimum inhibitory concentration (MIC) in the experiment with E. coli CN314 (CN314) came out at 0.125 mg/L.

Take `COc1cc(C(=O)OCCCN2CCCN(CCCOC(=O)c3cc(OC)c(OC)c(OC)c3)CC2)cc(OC)c1OC` [dilazep]: in experiment [2] (dilazep alone, 5 µM), the antiviral effect result is reported as “Neither dipyridamole (10 µM) nor dilazep (5 µM) alone had any observed antiviral effect”.

With `OCCN(CCO)c1nc(N2CCCCC2)c2nc(N(CCO)CCO)nc(N3CCCCC3)c2n1` [dipyridamole], the antiviral effect entry in experiment [2] (dipyridamole alone, 10 µM) is reported as “Neither dipyridamole (10 µM) nor dilazep (5 µM) alone had any observed antiviral effect”.
